This note sets out measurements from article PMC11286609, “In vitro and in vivo analyses of eFAP: a novel FAP-targeting small molecule for radionuclide theranostics and other oncological interventions” (EJNMMI Radiopharmacy and Chemistry, 2024).

Broadly, the logD is lipophilicity at a set pH, counting ionised and neutral species.

In one data set the test system is PS-1 cells. The data set is described as follows: Confocal microscopy of fluorescent tracer uptake, PS-1. It is filed as cell-based. How it is done: (§1) Cell experiments were performed with the human sarcoma HT1080 cell line, stably transduced with human FAP (HT1080-huFAP) which were kindly provided by Prof. Dr. Uwe Haberkorn from the University of Heidelberg. The wild type HT1080 (ATTC), hereafter HT080-WT, was used as a negative control. Additionally, the pancreatic stellate cells PS-1, obtained from Queen Mary University, were used as an endogenously FAP expressing cell line. HT1080-huFAP and HT1080-WT cells were cultured in DMEM Glutamax© (Gibco; Breda, The Netherlands) and the PS-1 cells were cultured in RPMI (Gibco). Both media were supplemented with 10% FBS (Gibco), 100 UI/mL penicillin, and 100 µg/mL streptomycin (Merck Life Science NV; Amsterdam, The Netherlands). All cell lines were regularly passaged at 80% confluence and cultured at 37 °C, 5% CO2.
(§2) Fluorescent tracer uptake was analyzed on HT1080-huFAP, HT1080-WT, and PS-1 cells. One day prior to the assay 280,000 HT1080-huFAP, 300,000 HT1080-WT, and 460,000 PS-1 cells were seeded on […] coverslips in a 6-well plate. […] Cells incubated only in medium were taken along to correct for auto-fluorescence. […] Analyses were performed in Fiji (Schindelin et al. [2012]) and were subjected to a custom-made macro to correct for auto-fluorescence signal. […]

A short description of data set [1]: Stability in PBS at 37 °C (radio-HPLC / LC-MS). Particulars: % intact labeled ligand, 37 °C. It is filed as physicochemical. How it is done:
(§3) For the stability assessment of eFAP-6, [^111In]In-eFAP-6 or [^177Lu]Lu-eFAP-6 (~ 3–7 MBq, 20 µL) was mixed with 180 µL of PBS (0.01 M, pH 7.4) and incubated at 37 °C for up to 24 h. A sample of the PBS solution was directly injected on the radio-HPLC at 1, 4, and 24 h after incubation. Additionally, [^111In]In-eFAP-6 and [^177Lu]Lu-eFAP-6 (5–15 MBq, 50 µL) were incubated with 350 µL of commercially acquired mouse or human serum (Biolegend; San Diego, CA, USA) at 37 °C for up to 24 h. Following 1, 4, and 24 h of incubation, 50 µL of the solution were mixed with 50 µL of acetonitrile in an Eppendorf tube, and centrifuged at 5000× g for 20 min. The supernatant was then analyzed by radio-HPLC. Stability studies of eFAP-7 were performed by incubation of eFAP-7 (50 µL, 10^− 4 M) in 450 µL PBS or serum at 37 °C for up to 24 h. After 1, 4, and 24 h of incubation, 50 µL of the PBS incubation solution were directly analyzed by liquid chromatography-mass spectrometry (LC-MS), while 50 µL of the serum solution was mixed with 50 µL of acetonitrile in an Eppendorf tube, and centrifuged at 5000× g for 20 min, followed by LC-MS analyses.

Data set [2] can be described thus: Stability in mouse serum at 37 °C (radio-HPLC / LC-MS). It is filed as in vitro ADME. Particulars: % intact labeled ligand, mouse serum, 37 °C. How it is done: as §3
The test system of another data set is HT1080-WT cells. In words: Confocal microscopy of fluorescent tracer uptake, HT1080-WT. It counts as cell-based, human. The conditions noted are these: HT1080-WT (FAP-negative control), 1 nM. On the procedure:
as §1, §2

Data set [3] is described as follows: LogD7.4 shake-flask method (n-octanol/PBS). It counts as physicochemical. Particulars: n-octanol/PBS (1:1 v/v); n-octanol/PBS pH 7.4, shake-flask. On the procedure:
The distribution coefficients (LogD7.4) were determined using a shake-flask method, in which 2 µL (~ 0.5 MBq) of [^111In]In-eFAP-6 or 10 µL of eFAP-7 (10^− 4 M) was added to an Eppendorf tube containing 1 mL of PBS (0.01 M, pH 7.4) and n-octanol (v/v, 1:1). After vigorous vortexing, the solution was centrifuged at 2500× g for 15 min for phase separation. For radiolabeled eFAP-6, samples (3 × 10 µL) of the octanol and aqueous phases were taken out and measured in a 1480 Wizard automatic γ-counter (PerkinElmer; Groningen, The Netherlands). LogD7.4 values were calculated by using the following equation: LogD7.4 = log [(counts in octanol phase)/(counts in aqueous phase)]. For eFAP-7, samples (50 µL) of the octanol and aqueous phases were taken out and measured by LC-MS. LogD7.4 values were calculated by using the following equation: LogD7.4 = log [(area in octanol phase)/(area in aqueous phase)].

Data set [4] in a line: Stability in human serum at 37 °C (radio-HPLC / LC-MS). It is filed as in vitro ADME. Particulars: % intact labeled ligand, human serum, 37 °C. On the procedure:
as §3

The subject of another data set is HT1080-huFAP cells. In words: Confocal microscopy of fluorescent tracer uptake, HT1080-huFAP. It is filed as cell-based, human. On the procedure:
as §1, §2

Regarding `CN1/C(=C/C=C/C=C/C2=[N+](CCCCCC(=O)NCCCOc3cccc4c(C(=O)NCC(=O)N5CC(F)(F)C[C@H]5C#N)ccnc34)c3ccc(S(=O)(=O)[O-])cc3C2(C)C)C(C)(C)c2cc(S(=O)(=O)O)ccc21` [eFAP-7, 1-(6-((3-((4-((2-((S)-2-cyano-4,4-difluoropyrrolidin-1-yl)-2-oxoethyl)carbamoyl)quinolin-8-yl)oxy)propyl)amino)-6-oxohexyl)-3,3-dimethyl-5-sulfo-2-((1E,3E)-5-((E)-1,3,3-trimethyl-5-sulfoindolin-2-ylidene)penta-1,3-dien-1-yl)-3H-indol-1-ium], the “sCy5 signal with an excess of UAMC-1110” value in the data set with PS-1 cells (PS-1, 1 nM tracer + 1 mM UAMC-1110) is “almost no visible signal”; in the data set on HT1080-huFAP cells (1 nM tracer + 1 mM UAMC-1110), “almost no visible signal”. For the same compound, in the data set with PS-1 cells (PS-1, 1 nM, 15 and 45 min), the “uptake in PS-1 cells relative to HT1080-huFAP” value was “visibly lower than for HT1080-huFAP”. For the same compound, the “Stability (% ± SD) PBS 1 h” value in data set [1] (1 h) came out at 99.5 ± 0.5%. In data set [1] (4 h), the “Stability (% ± SD) PBS 4 h” value amounted to 99.2 ± 0.7%. In addition, in data set [1] (24 h), the “Stability (% ± SD) PBS 24 h” value is on record as 99.1 ± 0.1%. Moreover, the “Stability (% ± SD) Mouse serum 1 h” value in data set [2] (1 h) worked out at 85.0 ± 3.3%. Moreover, the “Stability (% ± SD) Mouse serum 4 h” value in data set [2] (4 h) turned out to be 83.2 ± 4.1%. For the same compound, the “Stability (% ± SD) Mouse serum 24 h” value in data set [2] (24 h) is 76.2 ± 7.1%. Also, the “uptake in HT1080-WT cells” value in the data set with HT1080-WT cells is listed as “no uptake was observed”. This compound also had a logD in data set [3] of -0.94 ± 0.26. The “Stability (% ± SD) Human serum 1 h” value in data set [4] (1 h) worked out at 87.6 ± 0.9%. In data set [4] (4 h), the “Stability (% ± SD) Human serum 4 h” value was found to be 87.9 ± 2.3%. Also, the “Stability (% ± SD) Human serum 24 h” value in data set [4] (24 h) is 85.5 ± 2.1%. Besides, the “sCy5 signal (uptake) in cells” value in the data set with HT1080-huFAP cells (1 nM, 15 and 45 min of incubation) is “a clear signal was visible”.
